Several values for one entry are separate records, joined by “and”; a condition that tells them apart may be missing. Equal values may be shown once.
Legend:
[1] = target: SARS-CoV-2 Main Protease (SARS-CoV-2) (UniProt P0DTD1)
[2] = not given; remark: listed apart in the source
[3] = in vivo, iv, 0.5 mg/kg

Row | Compound | IC50 [1] | CC50 (a549) | AUC(0-inf) ([3]; rat) | AUC(0-t) ([3]; rat) | C0 ([3]; rat) | MRT inf ([3]; rat) | MRT last ([3]; rat) | Vd ([3]; rat) | clearance ([3]; rat) | half-life ([3]; rat) | further results
1 | CN(C)C(=O)C[C@]1(C(=O)Nc2cncc3ccccc23)CCOc2ccc(Cl)cc21 (stereo in doubt) | 1300 nM |  |  |  |  |  |  |  |  |  | CC50 (vero): > 9990 nM
2 | CS(=O)(=O)c1ccc2cncc(NC(=O)C3CCOc4cc(F)c(Cl)cc43)c2c1 (stereo not given) | 1890 nM and 1270 nM | > 9990 nM |  |  |  |  |  |  |  |  | 
3 | CN1CCN(S(=O)(=O)N2Cc3ccc(Cl)cc3C(C(=O)Nc3cncc4ccccc34)C2)CC1 (stereo not given) | 116 nM |  | 88 ng·h/mL and 85 ng·h/mL | 84.3 ng·h/mL and 82.4 ng·h/mL | 211 ng/mL and 112 ng/mL | 56.3 min and 30.7 min | 24.9 min and 47.2 min | 1.6 L/kg and 3.12 L/kg | 52.1 mL/min/kg and 55.5 mL/min/kg | 29.6 min and 52.7 min | logD [2]: 2.1
4 | O=C(Cn1nc2n(c(=O)c1=O)CCC2)NC(C(=O)Nc1cncc2ccccc12)c1cccc(Cl)c1 (stereo not given) |  |  |  |  |  |  |  |  |  |  | CC50 (vero): > 9990 nM
5 | O=C(Cc1cccc(Cl)c1)Nc1c[nH]c(=O)c2ccccc12 | > 99500 nM |  | 200 ng·h/mL and 464 ng·h/mL | 192 ng·h/mL and 458 ng·h/mL | 496 ng/mL and 718 ng/mL | 42.7 min and 34.1 min | 29.2 min and 40.5 min | 1.42 L/kg and 0.802 L/kg | 41.6 mL/min/kg and 19.6 mL/min/kg | 26.2 min and 25.4 min | 
6 | NC(=O)c1cc2c(NC(=O)C3CCOc4ccc(Cl)cc43)cncc2s1 (stereo not given) | 761 nM |  | 488 ng·h/mL and 612 ng·h/mL | 485 ng·h/mL and 604 ng·h/mL | 706 ng/mL and 898 ng/mL | 77.4 min and 69 min | 65.4 min and 70.2 min | 1.18 L/kg and 1.06 L/kg | 17.1 mL/min/kg and 13.7 mL/min/kg | 75 min and 84 min | 
7 | O=C(Nc1cncc2ccccc12)C1CCN(Cc2ccn[nH]2)c2ccc(Cl)cc21 (stereo not given) | 803 nM | > 9990 nM |  |  |  |  |  |  |  |  | 
8 | O=C(Nc1cncc2ccccc12)C1CN(S(=O)(=O)CCO)Cc2ccc(Cl)cc21 (stereo not given) | 232 nM |  | 241 ng·h/mL and 283 ng·h/mL | 236 ng·h/mL and 280 ng·h/mL | 441 ng/mL and 590 ng/mL | 56.2 min and 49.7 min | 44.2 min and 52.6 min | 1.72 L/kg and 1.66 L/kg | 34.6 mL/min/kg and 29.6 mL/min/kg | 47.1 min and 72.6 min | 
9 | O=C(Nc1cncc2ccccc12)C1CN(S(=O)(=O)C2CNC2)Cc2ccc(Cl)cc21 (stereo not given) | 274 nM |  |  |  |  |  |  |  |  |  | logD [2]: 1.4
10 | O=C(Cc1cccc(Cl)c1)Nc1cncc2cccc(F)c12 | 1310 nM |  |  |  |  |  |  |  |  |  | logD [2]: 3.1
11 | Cc1nnc(CN2Cc3ccc(Cl)cc3C(C(=O)Nc3cncc4ccccc34)C2)[nH]1 (stereo not given) | 750 nM |  | 143 ng·h/mL and 182 ng·h/mL | 142 ng·h/mL and 178 ng·h/mL | 621 ng/mL and 588 ng/mL | 28.7 min and 20.8 min | 19.7 min and 25.8 min | 1.21 L/kg and 1.32 L/kg | 58.3 mL/min/kg and 46.8 mL/min/kg | 18.7 min and 22.1 min | 
12 | CN(C)C(=O)CC1(C(=O)Nc2cncc3ccccc23)CCOc2ccc(Cl)cc21 (stereo not given) | 2920 nM | > 9990 nM |  |  |  |  |  |  |  |  | 
13 | C=CC(=O)N(C(=O)C1CCOc2ccc(Cl)cc21)c1cncc2ccccc12 (stereo not given) |  | > 10000 nM |  |  |  |  |  |  |  |  | 
14 | COc1cccc2[nH]c(=O)cc(C(=O)NCCOc3ccccc3OCC3CC3)c12 |  | > 10000 nM |  |  |  |  |  |  |  |  | 
15 | CC(C)(C)c1ccc(N(C(=O)c2cocn2)C(C(=O)NC2COC2)c2cccnc2)cc1 (stereo not given) | 4070 nM |  |  |  |  |  |  |  |  |  | CC50 (vero): > 10000 nM
16 | COCCN1CCC(C(=O)Nc2cncc3ccccc23)c2cc(Cl)ccc21 (stereo not given) | 564 nM | > 9990 nM |  |  |  |  |  |  |  |  | 
17 | CS(=O)(=O)c1ccc2cncc(NC(=O)C3CNC(=O)c4ccc(Cl)cc43)c2c1 (stereo not given) | 2740 nM |  | 177 ng·h/mL and 160 ng·h/mL | 175 ng·h/mL and 157 ng·h/mL | 636 ng/mL and 540 ng/mL | 25.6 min and 22 min | 20.7 min and 22.8 min | 1.08 L/kg and 1.38 L/kg | 49 mL/min/kg and 54.2 mL/min/kg | 19.3 min and 23.4 min | 
18 | COCCS(=O)(=O)N1Cc2ccc(Cl)cc2C(C(=O)Nc2cncc3ccccc23)C1 (stereo not given) | 211 nM and 214 nM |  |  |  |  |  |  |  |  |  | logD [2]: 2.3

Row | Compound | IC50 [1] | CC50 (a549) | AUC(0-inf) ([3]; rat) | AUC(0-t) ([3]; rat) | C0 ([3]; rat) | MRT inf ([3]; rat) | MRT last ([3]; rat) | Vd ([3]; rat) | clearance ([3]; rat) | half-life ([3]; rat) | further results
19 | O=C(Nc1cncc2ccccc12)C(NC(=O)[C@@H]1CCCO1)c1cccc(Cl)c1 (stereo in doubt) | 2290 nM | > 9990 nM |  |  |  |  |  |  |  |  | 
20 | O=C(Nc1cnccc1C1CC1)C1CCNc2cc(Cl)c(Cl)cc21 (stereo not given) |  | > 9990 nM | 144 ng·h/mL and 96.1 ng·h/mL | 142 ng·h/mL and 94.2 ng·h/mL | 341 ng/mL and 180 ng/mL | 46.2 min and 45.9 min | 40.6 min and 41 min | 2.65 L/kg and 4.01 L/kg | 57.7 mL/min/kg and 86.8 mL/min/kg | 49.4 min and 48.2 min | CC50 (mda-md-435): > 9990 nM
21 | O=C(Cc1cccc(Cl)c1)Nc1cncc2cn[nH]c12 | 2100 nM |  | 216 ng·h/mL and 364 ng·h/mL | 216 ng·h/mL and 356 ng·h/mL | 986 ng/mL and 1030 ng/mL | 25.6 min and 15.7 min | 15.4 min and 23.3 min | 0.604 L/kg and 0.594 L/kg | 38.6 mL/min/kg and 25.6 mL/min/kg | 14.4 min and 19.9 min | 
22 | CC1CN(S(C)(=O)=O)CCC1NC(=O)CC1(C(=O)Nc2cncc3ccccc23)CCOc2ccc(Cl)cc21 (stereo not given) | 2790 nM | > 9990 nM |  |  |  |  |  |  |  |  | 
23 | O=C(Cc1cccc(Cl)c1)Nc1cnc2ccccn12 | 8030 nM |  | 285 ng·h/mL and 249 ng·h/mL | 284 ng·h/mL and 247 ng·h/mL | 663 ng/mL and 588 ng/mL | 26.8 min and 26.9 min | 26.4 min and 25.6 min | 0.788 L/kg and 0.895 L/kg | 29.2 mL/min/kg and 33.5 mL/min/kg | 25.6 min and 22.8 min | 
24 | O=C(Nc1cncc2cc(Cl)ccc12)C1CCS(=O)(=O)c2ccc(Cl)cc21 (stereo not given) | 838 nM |  | 2140 ng·h/mL and 2940 ng·h/mL | 1940 ng·h/mL and 2700 ng·h/mL | 769 ng/mL and 1200 ng/mL | 193 min and 199 min | 148 min and 151 min | 0.774 L/kg and 0.556 L/kg | 3.9 mL/min/kg and 2.9 mL/min/kg | 141 min and 133 min | 
25 | O=C(Cc1cccc(Cl)c1)Nc1cncc2cc[nH]c12 | 1900 nM |  | 129 ng·h/mL and 176 ng·h/mL and 114 ng·h/mL | 128 ng·h/mL and 172 ng·h/mL and 113 ng·h/mL | 320 ng/mL and 470 ng/mL and 344 ng/mL | 29.9 min and 38.2 min and 23 min | 35.3 min and 27 min and 21.6 min | 2.47 L/kg and 1.46 L/kg and 2.1 L/kg | 64.5 mL/min/kg and 48.4 mL/min/kg and 91.1 mL/min/kg | 42.8 min and 22.7 min and 19.5 min | 
26 | CCCc1cc(Cl)cc(CC(=O)Nc2cncc3ccccc23)c1 | 2650 nM | > 9990 nM |  |  |  |  |  |  |  |  | 
27 | COc1ccc2cncc(NC(=O)C3(OC)CCOc4ccc(Cl)cc43)c2c1 (stereo not given) | 116 nM and 120 nM |  |  |  |  |  |  |  |  |  | logD [2]: 3.4; AUC(0-inf) ([3]; mouse): 98.2 ng·h/mL and 108 ng·h/mL; C0 ([3]; mouse): 246 ng/mL and 252 ng/mL; MRT inf ([3]; mouse): 41.5 min and 34.1 min; MRT last ([3]; mouse): 30.8 min and 28.1 min; Vd ([3]; mouse): 3.52 L/kg and 2.67 L/kg; clearance ([3]; mouse): 84.9 mL/min/kg and 77.9 mL/min/kg; half-life ([3]; mouse): 35.6 min and 29 min
28 | N#Cc1cc(Cl)cc2c1NCCC2C(=O)Nc1cncc2ccccc12 (stereo not given) | 242 nM | > 9990 nM |  |  |  |  |  |  |  |  | 
29 | C=CC(=O)N(C(=O)[C@H]1CCOc2ccc(Cl)cc21)c1cncc2ccccc12 (stereo in doubt) |  | > 9990 nM |  |  |  |  |  |  |  |  | CC50 (vero): > 9990 nM
30 | Cc1ccc(CC(=O)Nc2cncc3ccccc23)cc1Cl | 1090 nM | > 9990 nM |  |  |  |  |  |  |  |  | 
31 | CC(C)(C)c1ccc(N(C(=O)c2cocn2)C(C(=O)NCC2CCCO2)c2cccnc2)cc1 (stereo not given) | 5150 nM |  |  |  |  |  |  |  |  |  | CC50 (vero): > 10000 nM
32 | COC(=O)[C@@H]1C[C@@H](NC(=O)C(c2cccnc2)N(C(=O)c2cocn2)c2ccc(C(C)(C)C)cc2)CN1C(=O)OC(C)(C)C (stereo in doubt) | 6820 nM |  |  |  |  |  |  |  |  |  | CC50 (vero): > 10000 nM
33 | O=C(Nc1cncc2ccccc12)C1CCOc2c(OCc3ccncc3)cc(Cl)cc21 (stereo not given) | 3450 nM | > 9990 nM |  |  |  |  |  |  |  |  | 
34 | O=C(Cc1ccc(Cl)c(Cl)c1)Nc1cncc2cnccc12 | 1850 nM | > 9990 nM |  |  |  |  |  |  |  |  | 
35 | O=C(Cc1cccc(Cl)c1)Nc1cncc2c(F)cccc12 | 890 nM |  | 140 ng·h/mL and 138 ng·h/mL | 139 ng·h/mL and 136 ng·h/mL | 515 ng/mL and 498 ng/mL | 19.8 min and 20.1 min | 19.1 min and 18.7 min | 1.02 L/kg | 50.8 mL/min/kg and 51.6 mL/min/kg | 17.4 min and 18.2 min | 
